Usually Papp A→B stands for the apparent permeability from the apical to the basolateral side of a cell layer. Low readings indicate poor permeation, high ones ready permeation.

Starred links: 1 amine or outer side, 2 acyl side, 3 side chain; linkers in the order of their positions; H or OH if unused. Positions of bridges follow the written chain, without caps; N, C: chain ends. Non-standard residues stand in square brackets, D forms with d. Residues, ends and D or L forms follow the SMILES beside them. *: point of attachment. X9 = O=C(CN(CCOc1ccccc1)[*:1])[*:2]; Gly(N-(CH2)2OEt) = CCOCCNCC(=O)O; NMeF = CN[C@@H](Cc1ccccc1)C(=O)O; NMeL = CN[C@@H](CC(C)C)C(=O)O; NMeV = CN[C@H](C(=O)O)C(C)C; NMeAbu = CC[C@H](NC)C(=O)O; NMeA = CN[C@@H](C)C(=O)O; Piperidide = C1CCN(*)CC1; Abu = CC[C@H](N)C(=O)O; NBuGly = CCCCNCC(=O)O; Sar = CNCC(=O)O; tBu = CC(C)(C)*

A short description of this data set: Caco-2 membrane permeability, improved method as used in the following Examples (96-well, 20 to 24 h preincubation). The class given is in vitro ADME. As to conditions: human, Caco-2, Caco-2. A digest of the protocol: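 Papp (cm/sec) was derived from LC/MS of basal samples collected 180 min after apical dosing in FaSSIF/HBSS pH 6.0 with 1% DMSO, against a basal HBSS pH 7.4 receiver containing 4% BSA. Three-week Caco-2 cultures were first preincubated with compound in DMEM+FaSSIF at 37 °C for 20–24 h.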
(Passage across Caco-2 layers is used to estimate intestinal permeability.)
The compound `CCOCCN1CC(=O)N(C)[C@@H](Cc2ccccc2)C(=O)N(C)[C@@H](CC(C)C)C(=O)N[C@@H](COC(C)(C)C)C(=O)N(C)[C@@H](CC(C)C)C(=O)N[C@H](C(=O)N2CCCCC2)CC(=O)N(C)CC(=O)N(C)[C@@H](Cc2ccccc2)C(=O)N[C@@H](C(C)C)C(=O)N(C)[C@@H](CC(C)C)C(=O)N[C@@H]([C@@H](C)O)C1=O` [pd418] ([Sar][NMeF]V[NMeL]T[Gly(N-(CH2)2OEt)][NMeF][NMeL]S(tBu)[NMeL]D-Piperidide; lactam N-11) showed a Papp A→B at 180 min of 1.5 ×10⁻⁶ cm/s.
In turn, `CCCCN1CC(=O)N(C)[C@@H](CC(C)C)C(=O)N[C@H](C(=O)N2CCCCC2)CC(=O)N(C)[C@@H](CC)C(=O)N[C@@H](CC(C)C)C(=O)N(C)[C@@H](CC(C)C)C(=O)N(C)[C@@H](Cc2ccccc2)C(=O)N[C@@H](CC)C(=O)N(C)[C@@H](Cc2ccccc2)C(=O)N(CCOCC)CC(=O)N[C@@H]([C@@H](C)O)C1=O` [pd419] ([NMeAbu]L[NMeL][NMeF][Abu][NMeF][Gly(N-(CH2)2OEt)]T[NBuGly][NMeL]D-Piperidide; lactam N-11) displayed a Papp A→B at 180 min of 2.3 ×10⁻⁶ cm/s.
As for `CC[C@H]1C(=O)N(C)[C@@H](Cc2ccccc2)C(=O)N[C@@H](C)C(=O)N(C)[C@@H](CC(C)C)C(=O)N(C)[C@@H](CC)C(=O)N[C@@H]([C@@H](C)O)C(=O)N(CCOc2ccccc2)CC(=O)N(C)[C@@H](CC(C)C)C(=O)N[C@H](C(=O)N2CCCCC2)CC(=O)N(C)[C@@H](C(C)C)C(=O)N[C@@H](CC(C)C)C(=O)N1C` [pd420] ([NMeV]L[NMeAbu][NMeF]A[NMeL][NMeAbu]T[X9][NMeL]D-Piperidide; lactam N-11), the Papp A→B at 180 min came out at 4.5 ×10⁻⁶ cm/s.
For the compound `CC[C@H]1C(=O)N[C@@H]([C@@H](C)O)C(=O)N(C)CC(=O)N(C)[C@@H](Cc2ccccc2)C(=O)N(C)[C@@H](CC)C(=O)N[C@@H](COC(C)(C)C)C(=O)N(C)[C@@H](CC(C)C)C(=O)N[C@H](C(=O)N2CCCCC2)CC(=O)N(CCOc2ccccc2)CC(=O)N(C)[C@@H](CC(C)C)C(=O)N[C@@H](CC(C)C)C(=O)N1C` [pd421] ([X9][NMeL]L[NMeAbu]T[Sar][NMeF][NMeAbu]S(tBu)[NMeL]D-Piperidide; lactam N-11), the Papp A→B at 180 min was determined as 1.3 ×10⁻⁶ cm/s.
The same measure for `CCCCN1CC(=O)N(C)[C@@H](C)C(=O)N[C@@H](COC(C)(C)C)C(=O)N(C)[C@@H](CC(C)C)C(=O)N(CCOc2ccccc2)CC(=O)N[C@H](C(=O)N2CCCCC2)CC(=O)N[C@H](CC(C)C)C(=O)N(C)[C@@H](Cc2ccccc2)C(=O)N[C@@H](CC(C)C)C(=O)N(C)[C@@H](CC)C(=O)N[C@@H]([C@@H](C)O)C1=O` [pd422] ([dL][NMeF]L[NMeAbu]T[NBuGly][NMeA]S(tBu)[NMeL][X9]D-Piperidide; lactam N-11): 1 ×10⁻⁶ cm/s; for `CC[C@H](C)[C@@H]1NC(=O)[C@H](CC(C)C)N(C)C(=O)[C@@H](C)NC(=O)C[C@@H](C(=O)N2CCCCC2)NC(=O)[C@H](CC)N(C)C(=O)[C@H](Cc2ccccc2)N(C)C(=O)[C@H](COC(C)(C)C)NC(=O)[C@H](CC(C)C)N(C)C(=O)[C@H](CC)N(C)C(=O)[C@H]([C@@H](C)O)NC(=O)CN(CCOc2ccccc2)C1=O` [pd423] ([dA][NMeL]I[X9]T[NMeAbu][NMeL]S(tBu)[NMeF][NMeAbu]D-Piperidide; lactam N-11): 1 ×10⁻⁶ cm/s; for `CC[C@@H]1NC(=O)[C@H](Cc2ccccc2)N(C)C(=O)[C@H](CC(C)C)N(C)C(=O)[C@H](CC(C)C)NC(=O)[C@H](CC)N(C)C(=O)C[C@@H](C(=O)N2CCCCC2)NC(=O)[C@H](CC(C)C)N(C)C(=O)CN(C)C(=O)[C@H]([C@@H](C)O)NC(=O)CN(CCOc2ccccc2)C(=O)[C@H](CC(C)C)N(C)C1=O` [pd424] ([NMeAbu]L[NMeL][NMeF][Abu][NMeL][X9]T[Sar][NMeL]D-Piperidide; lactam N-11): 1.2 ×10⁻⁶ cm/s.

Source of the values: patent US20200131669A1, “CYCLIC PEPTIDE COMPOUND HAVING HIGH MEMBRANE PERMEABILITY, AND LIBRARY CONTAINING SAME” (Chugai Seiyaku Kabushiki Kaisha, priority 2017, published 2020).
